Legend:
Type in all cases: cell-based
B16 melanocytes [1] = experiment: Cell numbers by sulforhodamine B method, Study II; conditions: 20X dilution of dilute stock solutions; 72 hours
Description: (§1) Cells (B16 melanocytes) were plated in phenol-free Dulbecco's Modified Eagle's Medium (DMEM) supplemented with 5% fetal bovine serum (FBS) at 10,000 cells/well. After 24 hours, test material was added and the cells were incubated with the test material for 48 hours. The melanin was quantified by instrumentally measuring absorbance with a BIORAD microplate spectrophotometer 3550-UV at 490 nanometers. Cultures were also photographed (CANON REBEL digital camera). Statistical significance of the values was calculated using paired t-test and threshold statistical significance was fixed at p=0.05 and 15% difference as compare to the water control group. Cell numbers were measured using a sulforhodamine B method (described by Skehan et al, “New colorimetric cytotoxicity assay for anticancer-drug screening”, J. Natl Cancer Inst., 82:1107, 1990, the relevant disclosures of which are incorporated herein by reference). The colorimetric signal proportional to cell numbers was acquired with the microplate spectrophotometer 3550-UV at 550 nanometers.
Following the general procedure of Study I, a further set of dilute aqueous stock solutions was prepared containing each component individually (Compositions 6M-O in Table 10). A stock solution containing a combinations of each component was prepared from the stock solutions of each component (Composition 6P in Table 10) to provide amounts representing the weight ratio of each component to one another present in a composition of Example 1-B as shown below in Note 1 to Table 10. For comparison, a dilute stock solution of hydroquinone (Composition 6Q) was included. A 20-fold (20×) dilution (distilled water) of each stock solution was selected for the in vitro test to minimize or avoid cytotoxicity of melanocytes in the cell growth medium.
(§2) The methodology of Study I was repeated, except that the test was terminated after 72 hours for quantifying melanin pigmentation.

B16 melanocytes [2] = experiment: Melanin production/secretion in melanocytes, Study I; conditions: 48 hours incubation; for effect on pigmentation / inhibition of melanin production/secretion: 20X dilution of stock solutions
Description: This example illustrates the synergistic efficacy of the combination of the complexion modifying components (a) 4-hexylresorcinol, (b) niacinamide and (c) 1-amino-ethylphosphinic acid, compared to the effect of the individual components, based on an in vitro evaluation of melanin production/secretion in melanocytes. Components (a), (b) and (c) were evaluated individually and in combination with one another as described below in Studies I and II, and in Tables 9 and 10.
(§3) One set of aqueous stock solutions was prepared containing each component individually (as supplied) in an amount representing the active concentration present in a composition of Example 1-B (Compositions 6A-C in Table 9). A corresponding second and third set of stock solutions was prepared, respectively containing two-times (Compositions 6E-G in Table 9) and four-times (Compositions I-K in Table 9) the amount of the foregoing concentrations. Combinations of each component were prepared from the stock solutions of each component (Compositions. 6D, 6H, and 6L in Table 9) to provide amounts representing the weight ratio of each component to one another present (active basis) in a composition of Example 1-B as shown below in Notes 1-3 of Table 9. A 20-fold (20×) dilution (distilled water) of each stock solution was selected for the in vitro test to minimize or avoid cytotoxicity of melanocytes in the cell growth medium.
Component (c) as supplied is described in Note (a) to Table 2. As a positive control, stock solutions of kojic acid solutions were prepared at an active concentration of 2%, 0.5% and 0.1% to provide a concentration of 0.1%, 0.025% and 0.005%, respectively, at a 20× dilution. Distilled water was used as the negative control.
as §1

B16 melanocytes [3] = experiment: Melanin production/secretion in melanocytes, Study II; conditions: 20X dilution of dilute stock solutions; 72 hours
Description: as §1
Following the general procedure of Study I, a further set of dilute aqueous stock solutions was prepared containing each component individually (Compositions 6M-O in Table 10). […] For comparison, a dilute stock solution of hydroquinone (Composition 6Q) was included. A 20-fold (20×) dilution (distilled water) of each stock solution was selected for the in vitro test to minimize or avoid cytotoxicity of melanocytes in the cell growth medium.
Distilled water was used as the negative control. As a positive control for validating the test, a dilute stock solutions of kojic acid (0.2%, 0.04%) were prepared and a 20× dilution (0.01%, 0.002%) tested.
as §2

B16 melanocytes [4] = experiment: Cell numbers by sulforhodamine B method, Study I; conditions: 20X dilution of stock solutions; 48 hours incubation
Description: as §3, §1

Compound	effect on cell numbers / cytotoxicity (B16 melanocytes [1])	effect on pigmentation / inhibition of melanin production/secretion (B16 melanocytes [2])	inhibitory effect on pigmentation (B16 melanocytes [3])	effect on cell numbers / cytotoxicity (B16 melanocytes [4])	inhibition of melanin production/secretion (B16 melanocytes [3])	pigmentation expressed as % (water control 100%) (B16 melanocytes [2]; 20X dilution)
CC(N)[PH](=O)O (stereo not shown) [1-amino-ethylphosphinic acid]	no inhibitory effect	no effect	no inhibitory effect	no effect		
CCCCCCc1ccc(O)cc1O [4-hexylresorcinol]	cytotoxic			cytotoxic or cytostatic		
Oc1ccc(O)cc1 [hydroquinone]					≥ 50%	
O=c1cc(CO)occ1O [kojic acid]	without significantly impacting cell proliferation	dose-dependent pigmentation-inhibitory effect		without significantly impacting cell proliferation	about 73%	70-90%
NC(=O)c1cccnc1 [niacinamide]	no inhibitory effect	no effect	no inhibitory effect	no effect		
